Source: patent US12384797B2, “Thioeno[3,2-b] pyridin-7-amine compounds for treating familial dysautonomia” (PTC THERAPEUTICS, INC., priority 2019, dated 2025)

What follows are compounds tested on Elongator complex protein 1 (ELP1, also referred to as IKBKAP) (assay: IKBKAP-HTRF assay (IKBKAP protein in lysates of FD patient-derived fibroblasts)). Conditions: 48 hours incubation, 7-point concentration curve.
Type: cell-based, human
Protocol: The assay is used for the quantitative determination of Elongator complex protein 1 (ELP1, also referred to as IKBKAP) concentration in cell lysates using the HTRF® (Homogeneous Time-Resolved Fluorescence) technology. IKBKAP is detected in a sandwich HTRF assay by use of an anti-IKAP antibody labeled with a donor and an anti-IKAP antibody labeled with an acceptor.
Cells were thawed and incubated in DMEM-10% FBS for 72 hours. Cells were trypsinized, counted, and re-suspended to a concentration of 50,000 cells/mL in DMEM-10% FBS. A 199 μL aliquot of the cell suspensions were plated at 10,000 cells per well in a 96 well microtiter plate and incubated for 3 to 5 hours. […] Test compounds were serially diluted 3.16-fold in 100% DMSO to generate a 7-point concentration curve. A 1 μL aliquot of 200× compound solution was transferred to cell-containing wells, and cells were incubated for 48 hours in a cell culture incubator (37° C., 5% CO2, 100% relative humidity). Triplicate samples were set up for each compound concentration. After 48 hours, the supernatant was removed from the cells and 50 μL of the 1×LB4 lysis buffer, containing protease inhibitors, was added to the cells and incubated with shaking at room temperature for 1 hour. A 36 μL aliquot of this lysate was subsequently transferred to the 384-well plate containing 4 μL of the antibody solution (1:50 dilution of anti IKAP d2 and anti-IKAP K(9+8) in detection buffer). The 384-well plate was then centrifuged for 1 minute to bring the solutions to the bottom of the plate and incubated overnight at 4° C. Fluorescence for each well of the plate at 665 nm and 620 nm was measured was on the EnVision plate reader (Perkin Elmer). The ΔF for each sample is calculated by:
[formula] wherein Signal is the normalized fluorescence for each sample well and Blank is the average normalized average fluorescence for the Blank control wells.
The maximum fold increase (MFI) in IKBKAP protein abundance for compounds of Formula (I) or a form thereof relative to the vehicle control are provided in Table 1. MFI was calculated by dividing the ΔF value for each sample well by the sample ΔF for the vehicle control wells.
The EC2x for IKBKAP protein expression obtained from the 7-point concentration curve generated for each test compound according to the protocol in Biological Example 1 are also provided in Table 1. The term “EC2x for IKBKAP protein expression” is defined as the concentration of test compound that is effective in producing two times the amount of IKBKAP protein in a FD patient cell compared to the amount produced from the DMSO vehicle control.

SMILES	EC2x for IKBKAP protein expression (concentration producing two times the amount of IKBKAP protein vs DMSO vehicle control)	MFI (maximum fold increase in IKBKAP protein abundance relative to the vehicle control)
C[C@H](N)Cc1sc2c(NCc3nccs3)cc(Cl)nc2c1C1CC1 [Compound 96, 2-[(2S)-2-aminopropyl]-5-chloro-3-cyclopropyl-N-[(1,3-thiazol-2-yl)methyl]thieno[3,2-b]pyridin-7-amine]	**** (between >0.005 μM and ≤0.02 μM is indicated by four stars (****))	***** (>4.9 is indicated by five stars (*****))
N[C@@H](CF)Cc1sc2c(NCc3ccco3)cc(Cl)nc2c1Cl [Compound 94, 2-[(2R)-2-amino-3-fluoropropyl]-3,5-dichloro-N-[(furan-2-yl)methyl]thieno[3,2-b]pyridin-7-amine]	***** (≤0.005 μM is indicated by five stars (*****))	**** (between >3.9 and ≤4.9 is indicated by four stars (****))
Cc1c(C(C)O)sc2c(NCc3ccco3)cc(Cl)nc12 (stereo not drawn) [Compound 3, 1-(5-chloro-7-{[(furan-2-yl)methyl]amino}-3-methylthieno[3,2-b]pyridin-2-yl)ethan-1-ol]	*** (between >0.02 μM and ≤0.5 μM is indicated by three stars (***))	*** (between >2.9 and ≤3.9 is indicated by three stars (***))
C[C@H](N)C(F)c1sc2c(NCc3ccco3)cc(Cl)nc2c1Br (stereo partly drawn) [Compound 154, 2-[(2S)-2-amino-1-fluoropropyl]-3-bromo-5-chloro-N-[(furan-2-yl)methyl]thieno[3,2-b]pyridin-7-amine]	***** (≤0.005 μM is indicated by five stars (*****))	**** (between >3.9 and ≤4.9 is indicated by four stars (****))
N[C@H](CF)Cc1sc2c(NCc3cccs3)cc(Cl)nc2c1Br [Compound 63, 2-[(2S)-2-amino-3-fluoropropyl]-3-bromo-5-chloro-N-[(thiophen-2-yl)methyl]thieno[3,2-b]pyridin-7-amine]	*** (between >0.02 μM and ≤0.5 μM is indicated by three stars (***))	** (between >1.9 and ≤2.9 is indicated by two stars (**))
N[C@@H](CCF)Cc1sc2c(NCc3nccs3)cc(Cl)nc2c1Cl [Compound 47, 2-[(2S)-2-amino-4-fluorobutyl]-3,5-dichloro-N-[(1,3-thiazol-2-yl)methyl]thieno[3,2-b]pyridin-7-amine]	***** (≤0.005 μM is indicated by five stars (*****))	***** (>4.9 is indicated by five stars (*****))
N[C@@H](CF)Cc1sc2c(NCc3nccs3)cc(Cl)nc2c1C1CC1 [Compound 87, 2-[(2R)-2-amino-3-fluoropropyl]-5-chloro-3-cyclopropyl-N-[(1,3-thiazol-2-yl)methyl]thieno[3,2-b]pyridin-7-amine]	*** (between >0.02 μM and ≤0.5 μM is indicated by three stars (***))	*** (between >2.9 and ≤3.9 is indicated by three stars (***))
Cc1c(C[C@@H](N)C(=O)Nc2cnccn2)sc2c(NCc3ccco3)cc(Cl)nc12 [Compound 135, 3-(5-chloro-7-{[(furan-2-yl)methyl]amino}-3-methylthieno[3,2-b]pyridin-2-yl)-N-pyrazin-2-yl-D-alaninamide]	***** (≤0.005 μM is indicated by five stars (*****))	**** (between >3.9 and ≤4.9 is indicated by four stars (****))
C[C@H](N)Cc1sc2c(NCc3ccco3)cc(C#N)nc2c1Br [Compound 49, 2-[(2S)-2-aminopropyl]-3-bromo-7-{[(furan-2-yl)methyl]amino}thieno[3,2-b]pyridine-5-carbonitrile]	***** (≤0.005 μM is indicated by five stars (*****))	***** (>4.9 is indicated by five stars (*****))
CNCc1sc2c(NCc3ccco3)cc(Cl)nc2c1C [Compound 27, 5-chloro-N-[(furan-2-yl)methyl]-3-methyl-2-[(methylamino)methyl]thieno[3,2-b]pyridin-7-amine]	*** (between >0.02 μM and ≤0.5 μM is indicated by three stars (***))	**** (between >3.9 and ≤4.9 is indicated by four stars (****))
Cc1c(C[C@H](C)N)sc2c(NCc3cccs3)cc(C#N)nc12 [Compound 54, 2-[(2S)-2-aminopropyl]-3-methyl-7-{[(thiophen-2-yl)methyl]amino}thieno[3,2-b]pyridine-5-carbonitrile]	***** (≤0.005 μM is indicated by five stars (*****))	***** (>4.9 is indicated by five stars (*****))
Cc1c(C[C@@H](N)CCF)sc2c(NCc3ccco3)cc(Cl)nc12 [Compound 95, 2-[(2S)-2-amino-4-fluorobutyl]-5-chloro-N-[(furan-2-yl)methyl]-3-methylthieno[3,2-b]pyridin-7-amine]	***** (≤0.005 μM is indicated by five stars (*****))	***** (>4.9 is indicated by five stars (*****))
CC[C@H](N)Cc1sc2c(NCc3ccco3)cc(Cl)nc2c1C [Compound 19, 2-[(2S)-2-aminobutyl]-5-chloro-N-[(furan-2-yl)methyl]-3-methylthieno[3,2-b]pyridin-7-amine]	***** (≤0.005 μM is indicated by five stars (*****))	***** (>4.9 is indicated by five stars (*****))
Cc1c(C[C@@H](N)C(=O)N(C)C)sc2c(NCc3ccco3)cc(Cl)nc12 [Compound 116, 3-(5-chloro-7-{[(furan-2-yl)methyl]amino}-3-methylthieno[3,2-b]pyridin-2-yl)-N,N-dimethyl-D-alaninamide]	**** (between >0.005 μM and ≤0.02 μM is indicated by four stars (****))	***** (>4.9 is indicated by five stars (*****))
COC(=O)[C@H](N)Cc1sc2c(NCc3ccco3)cc(Cl)nc2c1C [Compound 131, methyl 3-(5-chloro-7-{[(furan-2-yl)methyl]amino}-3-methylthieno[3,2-b]pyridin-2-yl)-D-alaninate]	**** (between >0.005 μM and ≤0.02 μM is indicated by four stars (****))	**** (between >3.9 and ≤4.9 is indicated by four stars (****))
Cc1c(C[C@@H](N)CC(C)C)sc2c(NCc3nccs3)cc(Cl)nc12 [Compound 68, 2-[(2S)-2-amino-4-methylpentyl]-5-chloro-3-methyl-N-[(1,3-thiazol-2-yl)methyl]thieno[3,2-b]pyridin-7-amine]	**** (between >0.005 μM and ≤0.02 μM is indicated by four stars (****))	***** (>4.9 is indicated by five stars (*****))
Clc1cc(NCc2nccs2)c2scc(Br)c2n1 [Compound 9, 3-bromo-5-chloro-N-[(1,3-thiazol-2-yl)methyl]thieno[3,2-b]pyridin-7-amine]	*** (between >0.02 μM and ≤0.5 μM is indicated by three stars (***))	***** (>4.9 is indicated by five stars (*****))
Cc1c(C[C@@H](N)C(=O)Nc2ccccn2)sc2c(NCc3ccco3)cc(Cl)nc12 [Compound 134, 3-(5-chloro-7-{[(furan-2-yl)methyl]amino}-3-methylthieno[3,2-b]pyridin-2-yl)-N-pyridin-2-yl-D-alaninamide]	**** (between >0.005 μM and ≤0.02 μM is indicated by four stars (****))	***** (>4.9 is indicated by five stars (*****))
